Test results taken from US20250195490A1, “ALPHA-METHYLENE AND AMINOMETHYL LACTONES AND LACTAMS FOR TREATMENT OF CLOSTRIDIOIDES DIFFICILE INFECTION (CDI)” (Purdue Research Foundation, priority 2022, published 2025).

Key:
E. coli (TolC mutant) = assay: MIC by broth microdilution against E. coli (TolC mutant); type: cell-based, Escherichia coli; settings: aerobic, 37° C., at least 18 hours
Method: (§1) Method: The minimum inhibitory concentration (MIC) of the compounds and control drugs, linezolid (antibiotic), vancomycin (antibiotic), 5-fluorocytosine (5-FC, antifungal drug), and fluconazole (antifungal drug) was determined using the broth microdilution method according to the guidelines outlined by the Clinical and Laboratory Standards Institute (CLSI) against clinically relevant bacterial (methicillin-resistant Staphylococcus aureus (MRSA), vancomycin-resistant Enterococcus faecalis (VRE), vancomycin-resistant Enterococcus faecium (VRE), Clostridioides difficile and Escherichia coli) and fungal (Candida albicans) strains. A solution equivalent to 0.5 McFarland standard was prepared from each strain and diluted in cation-adjusted Mueller-Hinton broth (for S. aureus and E. coli), tryptone soy broth (for E. faecalis), or brain heart infusion broth (for E. faecium) to achieve a bacterial inoculum of about 5×10^5 CFU/mL. C. difficile strains were cultured in brain heart infusion broth supplemented with hemin and vitamin K. C. albicans was diluted in RPMI medium supplemented with 3-(N-morpholino) propanesulfonic acid to achieve a fungal concentration of about 1.5×10^3 CFU/mL. Compounds and control drugs were added in the first row of the 96-well plates and diluted with media containing bacteria (to achieve a concentration gradient ranging from 128 to 1 μg/mL). For MRSA, VRE, and E. coli strains, plates were then incubated aerobically at 37° C. for at least 18 hours. C. albicans was incubated aerobically at 37° C. for 24 hours. Plates containing C. difficile were incubated anaerobically at […] for 48 hours.

Caco-2 cells = assay: In vitro cytotoxicity (MTS assay) against Caco-2 cells; settings: tested at 32, 64 and 128 μg/mL, two hours
Method: Percent viable mammalian cells (measured as average absorbance ratio (test agent relative to DMSO) for cytotoxicity analysis of the compounds (tested in triplicate) at 32, 64 and 128 μg/mL against Caco-2 cells using the MTS 3-(4,5-dimethylthiazol-2-yl)-5-(3-carboxymethoxyphenyl)-2-(4-sulfophenyl)-2H-tetrazolium) assay. Dimethyl sulfoxide (DMSO) was used as a negative control to determine a baseline measurement for the cytotoxic impact of each compound. The absorbance values represent an average of a minimum of three samples analyzed for each compound. Error bars represent standard deviation values for the absorbance values. A two-way ANOVA, with post hoc Dunnet's multiple comparisons test, determined statistical difference (denoted by the asterisk, *) (P<0.05) between the values obtained for each compound and DMSO (negative control, used as solvent for the compounds). […]
Method: Compounds were assayed (at concentrations of 32, 64 and 128 μg/mL) against a human colorectal (Caco-2) cell line to determine the potential toxic effect to mammalian cells in vitro. […] Absorbance readings (at OD490) were taken using a kinetic microplate reader (Molecular Devices, Sunnyvale, CA, USA). The quantity of viable cells after treatment with each compound was expressed as a percentage of the viability of DMSO-treated control cells (average of triplicate wells±standard deviation). […]

[1] = In vivo safety profile and toxicity (maximum tolerated dose) in mice
Method: Aminomethyllactone 27 was evaluated for any possible toxicity at oral doses higher than the anticipated dose that will be used for antimicrobial efficacy. The maximum tolerated dose (MTD) in mice was calculated and was expected to be several folds higher than therapeutic dose. The MTD is a dose that produces neither mortality nor more than a 10% decrement in body weight nor clinical signs of toxicity or a significant change in renal and/or hepatic function in the survivors. Having shown that 10 mg/kg in mice is not toxic in our initial mouse model studies, 10, 25, 50, 100, 200, 400 mg/kg doses of 27 were chosen, each dose was given one time to one mouse, and the mice were observed daily for 14 days for body weight gain, clinical signs of abnormality, and renal and hepatic function.
At the end of the study, all animals appeared to be healthy and have good body weight. They were then euthanized, and the major organ (heart, liver, lung, kidney, spleen, and intestines) tissues were harvested for histological examination of toxicity. The evaluator was blinded to the treatment status of each mouse at the time of examination. […] Overall, 27 appears to be non-toxic to mice.

C. albicans = assay: Broth microdilution against Candida albicans; type: cell-based; settings: gradient 128 to 1 μg/mL, 24 hours
Method: as §1

SMILES | MIC E. coli (TolC mutant) (E. coli (TolC mutant)) | concentration up to which non-toxic to Caco-2 cells (Caco-2 cells) | toxicity in initial mouse model studies ([1]; 10 mg/kg in mice) | histological examination of major organ tissues ([1]; heart, liver, lung, kidney, spleen, intestines, end of 14-day study) | toxicity to mice ([1]; single oral doses 10, 25, 50, 100, 200, 400 mg/kg, observed 14 days) | activity against C. albicans (C. albicans)
COc1cc(C2OC(=O)C(CN3CCCCC3)C2c2ccccc2Br)ccc1OCc1ccccc1 (racemic) [Compound 27] | >128 µg/mL | 128 µg/mL | not toxic | within normal histologic limits | non-toxic | inactive
C=C1C(=O)O[C@H](c2ccccc2O)[C@@H]1c1cccc(C#N)c1 (racemic) [Compound 50] | >128 µg/mL | 32 µg/mL |  |  |  | inactive
